Assay results reported in publication PMC3435281 (PLoS ONE, 2012).

Tests used:
DBA/2J mice (AHR^d) = test: In vivo hepatic microsomal EROD activity, DBA/2J; set-up: species or system mouse; conditions: oral 30, 80 or 120 mg/kg, 48 hours
Protocol: We utilized the wild type rat hepatoma cell line, 5L, which harbors the high affinity AHR isoform, and our newly created AHR^d-15 cell line. […] Groups of control mice were given corn oil alone or BNF at the concentration of 120 mg/kg.
Figure 3 In Vitro dose response curves. A. Rat hepatoma cell lines bearing the murine AHR^d (AHR^d-15) or the rat AHR^b (5L) were incubated with increasing doses of TCDD in 96-well plates. After 40 hours, EROD activity was performed from whole cell lysate. (n = 3). […] (n = 3). C. Same assay as in A, with increasing doses of BNF. (n = 2). […] Following 48 hours, hepatic microsomal proteins were isolated and used for the assessment of EROD activity. Animals were treated in groups of 4. Error bars: S.D.
Hepatic microsomes were prepared by homogenizing 0.5 g of liver tissue in 5 mL of MENG buffer (25 mM buffer sodium morpholinopropane sulfonate buffer (pH 7.5) containing 0.025% (w/v) NaN3, 1 mM EGTA and 10% (v/v) glycerol). The homogenate was subjected to centrifugation at 10,000×g for 20 minutes, followed by centrifugation of the supernatant for 1 hour at 100,000×g and 4°C. The pellet was dissolved in 15 mM Tris-HCl buffer containing 250 mM sucrose (pH 8.0) and aliquots were stored at −80°C. Protein concentration was determined using the Bicinchoninic Acid Protein Assay Reagent (Pierce Biotechnology, Rockford, IL). […]

[1] = system: CYP1A1 (induction through AHR^b); test: CYP1A1 qPCR in wild-type splenocytes; conditions: C57BL/6J, mouse
Protocol: As the above in vitro experiments were performed in cell lines, we next utilized AHR^b (C57BL/6J) and AHR^d congenic mice (on a C57BL/6J background). […] Normalized data was chosen to allow comparison of CYP1A1 upregulation to its maximum in AHR^b versus AHR^d mice.
Figure 4 Splenocytes from wild-type and AHR^d mice analyzed by qPCR for CYP1A1. […] After 4 hours they were analyzed by qPCR for CYP1A1 analysis. The curves are normalized from 0 to 100% response. […] Cos-1 cells were transfected with an AHR containing the same point mutation (valine for alanine) thought to be responsible for the low affinity of the AHR^d isoform compared to AHR^b, and compared to the wild-type AHR response. These cells also harbor a luciferase gene next to the DRE. C. Cos-1 cells were exposed to TCDD. […]
Spleen was harvested from mice at the time of euthanasia and single cell suspensions were made. […] The relative quantitation PCR for IDO1 (Mm00492586-m1) and GAPDH (4352339-E0806018) were performed in the Applied Biosystems 7900HT Fast Real-Time PCR System (Applied Biosystems), and TaqMan Universal PCR Master Mix (Applied Biosystems) was used as a reaction reagent. The relative quantitation PCR for Foxp3, CYP1A1, CYP1B1, and GAPDH were processed by the Bio-Rad iCycler (Bio-Rad) and iQ SYBR Green Supermix ([…]) was used as the reaction reagent.

[2] = target: wild-type AHR (pTarget-mAHR) (Mus musculus, UniProt P30561); test: DRE-luciferase in COS-1 cells transfected with wild-type mAHR
Protocol: Figure 4 Splenocytes from wild-type and AHR^d mice analyzed by qPCR for CYP1A1. […] After 4 hours they were analyzed by qPCR for CYP1A1 analysis. The curves are normalized from 0 to 100% response. […] Cos-1 cells were transfected with an AHR containing the same point mutation (valine for alanine) thought to be responsible for the low affinity of the AHR^d isoform compared to AHR^b, and compared to the wild-type AHR response. These cells also harbor a luciferase gene next to the DRE. C. Cos-1 cells were exposed to TCDD. […] The graphs represent normalized data from 0 response to 100% response. They are representative of 2 independent experiments.
These cells also harbor a luciferase gene next to the DRE. […] The data in this figure is normalized from 0 to 100% response.
After 4 hours of treatment, cells were assayed with dual luciferase® reporter assay system (Promega, Madison, WI). The expressed luciferase activity was measured by MicroLumat Plus luminometer (Berthold Technologies, Hartfordshire, UK).

Chain of wild-type AHR (pTarget-mAHR) (P30561 10-848): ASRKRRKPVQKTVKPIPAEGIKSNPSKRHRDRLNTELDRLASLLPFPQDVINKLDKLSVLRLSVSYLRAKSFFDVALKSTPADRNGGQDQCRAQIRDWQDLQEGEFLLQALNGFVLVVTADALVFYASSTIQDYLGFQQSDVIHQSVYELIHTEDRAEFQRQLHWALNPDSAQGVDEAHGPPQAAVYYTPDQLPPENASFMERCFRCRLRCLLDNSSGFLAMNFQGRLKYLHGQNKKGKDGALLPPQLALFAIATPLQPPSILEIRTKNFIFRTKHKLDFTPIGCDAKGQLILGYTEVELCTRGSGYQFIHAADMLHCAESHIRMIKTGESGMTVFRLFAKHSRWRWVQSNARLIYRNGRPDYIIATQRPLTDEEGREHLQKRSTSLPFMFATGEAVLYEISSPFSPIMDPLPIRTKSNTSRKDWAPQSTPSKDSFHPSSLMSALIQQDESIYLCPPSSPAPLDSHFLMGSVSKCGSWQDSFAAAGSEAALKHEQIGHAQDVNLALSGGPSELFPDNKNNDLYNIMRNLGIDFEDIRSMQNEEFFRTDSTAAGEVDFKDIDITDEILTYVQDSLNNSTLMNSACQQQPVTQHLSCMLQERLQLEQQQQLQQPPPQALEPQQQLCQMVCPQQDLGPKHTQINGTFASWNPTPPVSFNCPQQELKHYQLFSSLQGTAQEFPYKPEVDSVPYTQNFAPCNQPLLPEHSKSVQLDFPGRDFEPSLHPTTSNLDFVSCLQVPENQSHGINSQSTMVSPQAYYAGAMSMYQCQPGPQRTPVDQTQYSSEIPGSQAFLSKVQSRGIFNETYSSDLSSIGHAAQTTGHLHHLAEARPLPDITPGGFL

Row | SMILES | hepatic EROD activity (DBA/2J mice (AHR^d)) | EC50 at 4 h [1] [nM] | EC50 [2] [nM]
1 | Cc1cc(C)c(C=C2C(=O)Nc3ccccc32)[nH]1 [SU5416, 3-(3,5-dimethyl-1H-pyrrol-2-ylmethylene)-1,3-dihydro-indole-2-one] | dose-dependent increase | – | –
2 | Clc1cc2c(cc1Cl)Oc1cc(Cl)c(Cl)cc1O2 [TCDD, 2,3,7,8-tetrachlorodibenzo-p-dioxin] | – | 0.461 | 0.73
